Results on two molecules are retold here after patent US7563787B2, “Substituted pyrazole compounds” (Miikana Therapeutics, Inc., priority 2005, dated 2009).

What all share (assay type): biochemical
In one experiment the target is T1, ABL1 Y253F (Homo sapiens, UniProt P00519, Y253F).
T1 construct: purchased Invitrogen, Carlsbad, Calif
As to the kind of experiment: Kinase Selectivity Assay. As to conditions: read-out: Percent Inhibition at 1 μM. The procedure: (§1) Compounds were assayed for inhibitory activity against a panel of different kinase enzymes at a concentration of 1 μM. Where appropriate, full-length enzymes or catalytically active fragments, with N-terminal or C-terminal His- or GST-tags, were used (Invitrogen, Carlsbad, Calif.). Test compounds were initially diluted to 100× test concentration in 100% DMSO. This 100× concentration was then diluted to a 4× working concentration in Kinase Buffer (50 mM HEPES pH 7.5, 0.01% Brij-35, 10 mM MgCl2, 1 mM EGTA) and 2.5 μL was then added to a low volume NBS, 384-well plate (Corning, Corning, N.Y.). Five μL of a 2× peptide/kinase mixture (Invitrogen, Carlsbad, Calif.), as appropriate (listed in Table 3), was then added and the reaction was then initiated by addition of 2.5 μL of a 4× working concentration of ATP in Kinase Buffer.

Another experiment concerns the target T2, SYK (Homo sapiens, UniProt P43405).
T2 construct: purchased Invitrogen, Carlsbad, Calif
Description: Kinase Selectivity Assay. As to conditions: read-out: Percent Inhibition at 1 μM. The protocol: as §1

Another experiment concerns the target T3, LCK (Homo sapiens, UniProt P06239).
T3 construct: full-length enzymes or catalytically active fragments; purchased Invitrogen
As to the kind of experiment: Kinase Selectivity Assay. As to conditions: read-out: Percent Inhibition at 1 μM. The procedure: as §1

The next experiment concerns the target T4, PTK2 (FAK) (Homo sapiens, UniProt Q05397).
T4 construct: full-length enzymes or catalytically active fragments; purchased Invitrogen
As to the kind of experiment: Kinase Selectivity Assay. The conditions noted are these: read-out: Percent Inhibition at 1 μM. The procedure:
as §1

A further experiment has as its target T5, FGFR1 (Homo sapiens, UniProt P11362).
T5 construct: purchased Invitrogen, Carlsbad, Calif
As to the kind of experiment: Kinase Selectivity Assay. The conditions noted are these: read-out: Percent Inhibition at 1 μM. The protocol: as §1

For a further experiment, the target named is T6, ABL1 (Homo sapiens, UniProt P00519).
T6 construct: purchased Invitrogen, Carlsbad, Calif
As to the kind of experiment: Kinase Selectivity Assay. The conditions noted are these: read-out: Percent Inhibition at 1 μM. The protocol:
as §1

The next experiment has as its target T7, ABL1 T315I (Homo sapiens, UniProt P00519, T315I).
T7 construct: purchased Invitrogen, Carlsbad, Calif
Description: Kinase Selectivity Assay. The conditions noted are these: read-out: Percent Inhibition at 1 μM. The protocol:
as §1

In the next experiment the target is T8, ABL1 E255K (Homo sapiens, UniProt P00519, E255K).
T8 construct: purchased Invitrogen, Carlsbad, Calif
As to the kind of experiment: Kinase Selectivity Assay. As to conditions: read-out: Percent Inhibition at 1 μM. The procedure:
as §1

In a further experiment the target is T9, ABL1 G250E (Homo sapiens, UniProt P00519, G250E).
T9 construct: purchased Invitrogen, Carlsbad, Calif
Description: Kinase Selectivity Assay. The conditions noted are these: read-out: Percent Inhibition at 1 μM. The procedure: as §1

Experiment [1] addresses T10, recombinant human KDR, residues 790-end (Homo sapiens, UniProt P35968).
T10 construct: recombinant human KDR, residues 790-end; His6 (N); purchased Upstate USA Inc, Charlottesville, Va
As to the kind of experiment: KDR Kinase Inhibition Assay. The conditions noted are these: read-out: inhibition of KDR at a concentration of 1 μM.
Description: Compounds were assayed for KDR kinase inhibitory activity using N-terminal His6-tagged recombinant human KDR, residues 790-end (Upstate USA Inc, 706 Forest Street, Charlottesville, Va.). Serial dilutions of compound were assayed in a final reaction volume of 25 μL by incubating a solution of the above KDR kinase (5-10 mU), 8 mM MOPS (3-(N-morpholino) propanesulfonic acid) pH 7.0, 0.2 mM EDTA (ethylenediamine tetracetic acid), 0.33 mg/mL myelin basic protein (Upstate USA Inc, 706 Forest Street, Charlottesville, Virginia), and 10 mM magnesium acetate and [γ-^33P-ATP] (specific activity of about 500 cpm/pmol, concentration as required). The reaction was initiated by the addition of the magnesium acetate and [γ-^33P-ATP] mixture. After incubation for 40 minutes at room temperature, the reaction was stopped by the addition of 5 μL of a 3% phosphoric acid solution. A 10 μL aliquote of the reaction was then spotted onto a P30 filtermat (PerkinElmer, Wellesley, Mass.) and washed three times for five minutes in 75 mM phosphoric acid and once in methanol prior to drying and scintillation counting. Inhibition of KDR activity was determined by comparison to assays that contained no inhibitor.

T10 sequence (P35968 790-1356 limits assumed): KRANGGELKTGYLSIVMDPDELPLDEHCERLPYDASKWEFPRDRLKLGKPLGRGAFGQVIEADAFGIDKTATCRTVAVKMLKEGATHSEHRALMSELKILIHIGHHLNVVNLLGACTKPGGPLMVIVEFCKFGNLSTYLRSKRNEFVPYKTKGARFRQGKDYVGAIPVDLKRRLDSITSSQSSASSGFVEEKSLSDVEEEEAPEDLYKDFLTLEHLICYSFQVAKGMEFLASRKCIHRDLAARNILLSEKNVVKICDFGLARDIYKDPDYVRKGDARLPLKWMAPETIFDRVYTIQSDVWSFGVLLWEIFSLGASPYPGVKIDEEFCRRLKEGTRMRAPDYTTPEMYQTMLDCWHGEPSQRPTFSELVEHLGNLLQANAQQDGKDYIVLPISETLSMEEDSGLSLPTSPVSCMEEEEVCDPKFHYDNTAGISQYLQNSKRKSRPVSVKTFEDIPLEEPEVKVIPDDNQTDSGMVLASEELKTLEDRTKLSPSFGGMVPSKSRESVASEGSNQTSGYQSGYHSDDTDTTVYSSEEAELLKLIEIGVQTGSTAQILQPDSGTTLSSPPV
T5 sequence (P11362 22-822): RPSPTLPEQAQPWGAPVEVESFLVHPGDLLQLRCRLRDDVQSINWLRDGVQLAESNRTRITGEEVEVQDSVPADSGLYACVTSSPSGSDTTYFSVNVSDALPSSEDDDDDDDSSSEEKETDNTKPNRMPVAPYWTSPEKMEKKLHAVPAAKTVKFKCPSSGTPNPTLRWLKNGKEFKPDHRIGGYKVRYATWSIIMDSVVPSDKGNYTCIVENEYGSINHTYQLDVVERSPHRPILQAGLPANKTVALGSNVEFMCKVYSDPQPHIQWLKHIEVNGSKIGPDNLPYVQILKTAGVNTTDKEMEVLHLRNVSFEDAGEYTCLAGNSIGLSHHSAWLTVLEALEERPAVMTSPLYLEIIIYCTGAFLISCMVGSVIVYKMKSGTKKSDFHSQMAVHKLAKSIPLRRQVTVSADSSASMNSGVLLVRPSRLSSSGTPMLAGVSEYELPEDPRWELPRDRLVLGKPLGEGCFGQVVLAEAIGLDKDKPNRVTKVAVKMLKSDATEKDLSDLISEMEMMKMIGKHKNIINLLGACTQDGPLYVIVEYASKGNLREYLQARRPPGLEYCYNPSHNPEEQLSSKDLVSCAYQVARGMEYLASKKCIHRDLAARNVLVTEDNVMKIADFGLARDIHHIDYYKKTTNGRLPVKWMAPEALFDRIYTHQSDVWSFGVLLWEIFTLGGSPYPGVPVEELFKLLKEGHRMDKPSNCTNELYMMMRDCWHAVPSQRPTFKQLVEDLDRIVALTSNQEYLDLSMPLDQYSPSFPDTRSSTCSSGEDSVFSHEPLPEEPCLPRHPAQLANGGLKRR
T3 sequence (P06239 whole entry, the tested form may be a part): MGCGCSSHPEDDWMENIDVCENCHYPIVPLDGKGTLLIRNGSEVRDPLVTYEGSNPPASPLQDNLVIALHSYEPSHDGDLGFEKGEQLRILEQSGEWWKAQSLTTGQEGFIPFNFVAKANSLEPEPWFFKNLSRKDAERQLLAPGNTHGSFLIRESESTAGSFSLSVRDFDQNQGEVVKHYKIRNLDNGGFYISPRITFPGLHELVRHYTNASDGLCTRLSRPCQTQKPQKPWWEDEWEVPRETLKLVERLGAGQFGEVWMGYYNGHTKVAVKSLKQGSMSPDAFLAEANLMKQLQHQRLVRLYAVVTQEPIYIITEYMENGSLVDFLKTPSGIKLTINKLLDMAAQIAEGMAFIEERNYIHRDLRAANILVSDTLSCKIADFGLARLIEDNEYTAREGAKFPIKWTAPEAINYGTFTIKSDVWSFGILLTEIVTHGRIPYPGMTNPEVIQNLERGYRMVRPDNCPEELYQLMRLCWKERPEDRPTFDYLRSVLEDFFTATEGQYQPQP
T4 sequence (Q05397 whole entry, the tested form may be a part): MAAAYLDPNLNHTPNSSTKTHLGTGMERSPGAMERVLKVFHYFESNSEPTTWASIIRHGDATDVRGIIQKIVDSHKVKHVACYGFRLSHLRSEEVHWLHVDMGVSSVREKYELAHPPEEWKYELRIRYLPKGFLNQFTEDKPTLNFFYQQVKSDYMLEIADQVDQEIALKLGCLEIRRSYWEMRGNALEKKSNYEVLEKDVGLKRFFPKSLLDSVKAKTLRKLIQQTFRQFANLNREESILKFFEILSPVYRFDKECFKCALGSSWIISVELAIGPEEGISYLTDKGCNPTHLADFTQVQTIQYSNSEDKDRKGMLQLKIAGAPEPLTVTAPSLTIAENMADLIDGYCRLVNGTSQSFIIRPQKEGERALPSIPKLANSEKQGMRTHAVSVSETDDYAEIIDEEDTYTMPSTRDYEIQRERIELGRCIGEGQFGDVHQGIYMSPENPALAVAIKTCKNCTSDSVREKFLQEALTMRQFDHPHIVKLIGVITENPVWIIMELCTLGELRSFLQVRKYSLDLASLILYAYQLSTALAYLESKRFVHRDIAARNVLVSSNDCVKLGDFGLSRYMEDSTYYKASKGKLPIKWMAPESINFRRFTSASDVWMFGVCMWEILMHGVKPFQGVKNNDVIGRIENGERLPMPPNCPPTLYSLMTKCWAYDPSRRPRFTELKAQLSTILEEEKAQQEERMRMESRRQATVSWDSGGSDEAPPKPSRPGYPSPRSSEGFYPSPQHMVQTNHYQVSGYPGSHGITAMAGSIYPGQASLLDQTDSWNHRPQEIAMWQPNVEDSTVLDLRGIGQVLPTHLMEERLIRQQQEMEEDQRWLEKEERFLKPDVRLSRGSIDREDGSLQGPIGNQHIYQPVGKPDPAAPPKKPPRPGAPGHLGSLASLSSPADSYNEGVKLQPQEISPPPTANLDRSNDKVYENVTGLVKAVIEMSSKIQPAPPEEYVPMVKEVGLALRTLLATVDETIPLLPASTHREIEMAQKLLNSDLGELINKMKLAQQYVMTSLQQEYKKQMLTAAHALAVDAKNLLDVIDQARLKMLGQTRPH

`Cc1cc(Nc2nc(/C=C/c3ccccc3)nc(N3CCN(C)CC3)c2N)[nH]n1` [Example 10, 6-(4-methylpiperazin-1-yl)-N-(3-methyl-1H-pyrazol-5-yl)-2-[(E)-2-phenylvinyl]pyrimidin-4,5-diamine]: the inhibition at 1 µM came to 57% at ABL1 Y253F; 88% at SYK; 81% on LCK; 81% at PTK2 (FAK); 46% on FGFR1; 54% at ABL1. The inhibition at 1 µM on ABL1 T315I amounted to 79%; at ABL1 E255K, 53%; at ABL1 G250E, 60%.
For `Cc1cc(Nc2cc(N3CCN(C)CC3)nc(/C=C/c3ccccc3)n2)n[nH]1` [Example 31, 6-(4-methylpiperazin-1-yl)-N-(3-methyl-1H-pyrazol-5-yl)-2-[(E)-2-phenylvinyl]pyrimidin-4-amine], the inhibition at 1 µM in experiment [1] was ~94%.
